Results taken from patent publication US20190358242A1, “COMPOSITIONS, KITS, AND METHODS TO INDUCE ACQUIRED CYTORESISTANCE USING STRESS PROTEIN INDUCERS” (FRED HUTCHINSON CANCER RESEARCH CENTER, priority 2017, published 2019).
“And” between values parts separate entries of the source, which are not always exact repeats. Identical values can stand only once.

What was measured:
[1] = system: glycerol model of rhabdomyolysis-induced AKI; assay: Glycerol model of rhabdomyolysis-induced AKI; assay type: in vivo, CD-1 mice; settings: IV pretreatment 18 h before glycerol; 18 hours after glycerol
Description: Assessments of cytoresistance. Glycerol model of rhabdomyolysis-induced AKI. Twenty mice were divided into 4 equal groups (controls, mice treated with N-Mgb, SnPP, and mice treated with N-Mgb+SnPP tail vein injections) as described previously. 18 hours later, the mice were briefly anesthetized with isoflurane and immediately injected with 9 mL/kg of 50% glycerol, administered in equally divided doses into each hind limb. At 18 hours after glycerol injection, the mice were anesthetized with pentobarbital, the abdomen was opened, a blood sample for BUN and creatinine assessments was obtained from the vena cava, and the kidneys were resected. The control post-glycerol group and the N-Mgb+SnPP-pretreated glycerol group had kidney sections stained with H&E.
To assess whether the previously determined plasma and kidney HO-1 and haptoglobin levels correlated with degrees of cytoresistance, additional mice were injected with 0, 2.5, or 5 mg of N-Mgb […] of SnPP (n=3 mice per group). Eighteen hours later, all mice were subjected to the glycerol AKI model as described previously. Severities of AKI were determined 18 hours after glycerol injection by BUN and plasma creatinine analyses.
Calculations and statistics. All values are given as the mean […] standard error of the mean. Statistical comparisons were made by unpaired Student's t test. […]

[2] = system: HO-1 protein; assay: Renal cortex HO-1 protein (ELISA) after IV myoglobin, SnPP or both; assay type: in vivo, CD-1 mice; settings: 4 hr IV; 1 mg myoglobin, 1 μmole SnPP
Text: The Glycerol Model of AKI. This is a widely used model of rhabdomyolysis-induced AKI that has been employed worldwide for 50 years. The model was used to test whether prophylactic interventions confer protection against AKI. Basically, the protocol is as follows: Male CD-1 mice (35-45 grams), obtained from Charles River Laboratories, Wilmington, Mass. were studied. Mice were maintained under standard vivarium conditions and generally housed for 1-3 weeks prior to study. The mice were placed in a cylindrical restraining cage, and then were given a tail vein injection of the test substances (see below) or test substance vehicle. The mice were then returned to their cages. Eighteen hours (hrs) later, the mice were briefly anesthetized by isoflurane inhalation, and given an intramuscular injection of hypertonic (50%) glycerol in a dose of 9 ml/Kg body weight. The dose is divided in two, with half injected into the muscle of each of the hind limbs. The mice were then returned to their cages. Eighteen hrs later, the mice were deeply anesthetized with pentobarbital (50-100 mg/Kg), the abdominal cavity was opened through a midline abdominal incision, a blood sample was obtained from the abdominal vena cava and the kidneys were resected. A kidney cross section was obtained and fixed in formalin for subsequent histologic analysis. The terminal blood samples were analyzed for BUN and creatinine, using commercially available assay kits. The remaining kidney tissue was subjected to cortical dissection, and the cortical tissues were then extracted for protein and RNA. The protein samples were saved for analysis of HO-1 levels, and the RNA samples were subjected to RT-PCR to quantify HO-1 mRNA as well as levels of other stress gene mRNAs (e.g. NGAL, haptoglobin, hemopexin, hepicidin).
Myoglobin+SnPP: To 5 mg of dry myoglobin was added 0.9 ml of PBS+0.1 ml of a stock SnPP solution (50 umole/ml). The resulting final concentrations were 5 mg/ml myoglobin+5 umoles/ml of SnPP. The tail vein was injected with 200 ul of this solution, which equals 1 mg myoglobin+1 umole SnPP. […]
Four hr post myoglobin vs myoglobin+SnPP vs SnPP alone experiments. To confirm that the myoglobin+SnPP has a synergistic effect in inducing HO-1 mRNA and HO-1 protein levels, each of the above combinations have been administered alone via tail vein injection. Four hrs later, the mice were sacrificed as noted above and the kidneys were harvested for assessment of HO-1 mRNA and protein levels. For additional information regarding methods, see Zager et al., Am J Physiol Renal Physiol. 2014 Jul. 30. Pii.
Given that it is just 4 hrs post injection, the mRNA increases are greater than the protein increases as protein synthesis must follow the mRNA induction-requiring more time.

In the case of `C=Cc1c2[n-]c(c1C)/C=c1\[n-]/c(c(C)c1C=C)=C\c1[n-]c(c(CCC(=O)O)c1C)/C=c1\[n-]c(c(C)c1CCC(=O)O)=C2.[Sn+4]` [SnPP, tin protoporphyrin], the “Protection against glycerol-induced AKI judged by BUN/creatinine levels” value [1] is reported as “virtually no effect”, the “Cortex HO-1 protein (ELISA), Average” value [2] is reported as 34.4 ng HO-1/mg protein and the “Cortex HO-1 protein (ELISA), individual mice” value [2] is reported as 31.5 ng HO-1/mg protein and 20.5 ng HO-1/mg protein and 53.6 ng HO-1/mg protein and 32.2 ng HO-1/mg protein.
